Holding throughout (type): cell-based, human
Assay [1] has as its system PBMC (immune recognition, gamma interferon-secreting T cells).
A further assay concerns CD4+ T cells. The assay can be described thus: Flow cytometry / intracellular cytokine staining, CD4+ T cells. To be noted: sarcoidosis subjects, in words, Fig. 1.
The subject of assay [2] is expanded sarcoidosis CD4+ T cell lines; antigen presented by Sweig cells (HLA DRB1*1101 and DRB3*0202).

Results on 1 sequence are retold here after article PMC2821522 (Journal of Clinical Immunology, 2009).

Where two headings read alike, the source gives them in different places.

Regarding WTNTPTKWDNSFLEI [katG peptide 13], the “subjects recognizing the peptide” value in assay [1] is given as “Seven of the eight”; in assay [1] (PPD− control subjects) it was “none”. Further, the “CD4+ T cell response” value in the assay on CD4+ T cells (listed as katG) is listed as “CD4+ T cell recognition of katG was also detected”; in the assay on CD4+ T cells (listed as katG peptide), “strong CD4+ T cells response”. Further, the “immune response (CD4+ IFN-γ)” value is “minimal response” in assay [2] and “strong CD4+ responses” in assay [2] (katG-expanded line of Sarcoidosis 6, with Sweig cells, Fig. 4, listed as katG peptides).
